ChEMBL document CHEMBL1201862, “PubChem BioAssay data set” (2004)
Calls of active or inactive are those of the source.

Experiments:
[1] = target: T1, High affinity choline transporter 1 (Homo sapiens, UniProt Q9GZV3); test: human choline transporter blockers, potency – cell-based, 5-point CRC, membrane potential dye, dose response (AID 504840); type: functional
T1 sequence (Q9GZV3 whole entry): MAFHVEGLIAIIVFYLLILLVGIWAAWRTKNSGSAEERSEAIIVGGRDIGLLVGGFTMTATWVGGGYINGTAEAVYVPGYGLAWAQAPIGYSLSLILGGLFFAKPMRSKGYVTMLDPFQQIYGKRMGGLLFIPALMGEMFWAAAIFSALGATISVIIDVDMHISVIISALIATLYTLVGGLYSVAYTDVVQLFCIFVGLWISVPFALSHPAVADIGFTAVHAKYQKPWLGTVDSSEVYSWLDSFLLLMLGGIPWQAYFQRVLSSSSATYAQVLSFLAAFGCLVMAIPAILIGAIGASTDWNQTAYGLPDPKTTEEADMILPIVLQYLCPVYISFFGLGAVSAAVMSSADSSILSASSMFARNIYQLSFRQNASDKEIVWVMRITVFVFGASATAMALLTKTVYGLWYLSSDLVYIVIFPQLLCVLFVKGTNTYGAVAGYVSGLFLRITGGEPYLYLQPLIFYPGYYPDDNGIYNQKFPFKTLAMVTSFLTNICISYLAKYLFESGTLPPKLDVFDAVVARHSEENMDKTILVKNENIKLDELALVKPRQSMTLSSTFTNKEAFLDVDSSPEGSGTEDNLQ

BJ [2] = test: BJ-TERT-LT-ST fibroblast viability loss – cell-based, RAS-independent, luminescence, dose response (AID 1935); type: functional; settings: Homo sapiens;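 further: BJ fibroblasts immortalized with TERT plus LT and ST oncogenes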
[3] = DRD fibroblast viability loss – cell-based, non-viral oncogenic, luminescence, dose response (AID 1934); type: functional; settings: Homo sapiens
BJ [4] = test: cells; type: functional, cell-based; settings: Homo sapiens
BJ [5] = test: BJ-TERT fibroblast viability loss – cell-based, RAS-independent, luminescence, dose response (AID 1933); type: functional; settings: Homo sapiens
HEK293 = test: EBV LMP1 TES2 canonical NF-kB signalling blockers – cell-based, HEK293, luciferase, cherry-pick, dose response (AID 588343); type: functional, Homo sapiens; settings: Homo sapiens, HEK293
[6] = target: T2, Calpain-2 catalytic subunit (Sus scrofa, UniProt P43367); test: m-calpain protease blockers, concentration series – biochemical, fluorogenic peptide substrate, dose response (AID 1420); type: functional
T2 sequence (P43367 whole entry): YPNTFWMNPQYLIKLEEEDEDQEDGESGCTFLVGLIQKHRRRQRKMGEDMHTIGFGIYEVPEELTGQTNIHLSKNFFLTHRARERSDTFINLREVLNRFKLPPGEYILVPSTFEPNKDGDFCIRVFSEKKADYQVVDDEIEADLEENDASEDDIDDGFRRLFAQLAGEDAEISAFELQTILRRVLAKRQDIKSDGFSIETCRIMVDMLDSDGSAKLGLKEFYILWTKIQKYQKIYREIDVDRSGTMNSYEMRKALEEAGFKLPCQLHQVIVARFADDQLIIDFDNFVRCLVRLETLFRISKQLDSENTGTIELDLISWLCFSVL

Protein skinhead-1 = target: T3, Protein skinhead-1 (Caenorhabditis elegans, UniProt P34707); type: functional
T3 sequence (P34707 whole entry): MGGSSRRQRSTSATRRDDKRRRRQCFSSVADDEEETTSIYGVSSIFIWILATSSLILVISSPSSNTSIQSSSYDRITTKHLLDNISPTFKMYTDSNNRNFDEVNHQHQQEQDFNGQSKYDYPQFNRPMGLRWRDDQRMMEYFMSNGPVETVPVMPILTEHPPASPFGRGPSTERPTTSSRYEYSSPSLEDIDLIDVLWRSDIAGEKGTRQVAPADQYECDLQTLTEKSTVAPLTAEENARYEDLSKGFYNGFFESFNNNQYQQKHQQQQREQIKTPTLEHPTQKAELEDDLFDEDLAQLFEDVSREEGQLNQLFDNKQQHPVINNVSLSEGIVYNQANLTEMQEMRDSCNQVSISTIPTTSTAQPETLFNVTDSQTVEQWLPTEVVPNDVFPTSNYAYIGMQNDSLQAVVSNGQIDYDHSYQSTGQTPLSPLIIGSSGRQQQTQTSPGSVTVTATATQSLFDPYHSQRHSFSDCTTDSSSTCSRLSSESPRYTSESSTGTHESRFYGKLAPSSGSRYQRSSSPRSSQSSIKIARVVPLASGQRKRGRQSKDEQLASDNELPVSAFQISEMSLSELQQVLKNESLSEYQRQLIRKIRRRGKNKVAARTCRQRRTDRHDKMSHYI

cells = type: functional
[7] = target: T4, Heat shock factor protein 1 (Mus musculus, UniProt P38532); test: enhancement of HSF1-driven luciferase signal – cell-based, NIH3T3, luminescence, dose retest, confirmation (AID 435004); type: functional;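 further: stress induced by proteasome inhibitor MG132 added 30 min after compound; luciferase reporter driven by HSF1 response element in NIH3T3 cells; actives raise luminescence as potentiators of the MG132 stress response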
T4 sequence (P38532 whole entry): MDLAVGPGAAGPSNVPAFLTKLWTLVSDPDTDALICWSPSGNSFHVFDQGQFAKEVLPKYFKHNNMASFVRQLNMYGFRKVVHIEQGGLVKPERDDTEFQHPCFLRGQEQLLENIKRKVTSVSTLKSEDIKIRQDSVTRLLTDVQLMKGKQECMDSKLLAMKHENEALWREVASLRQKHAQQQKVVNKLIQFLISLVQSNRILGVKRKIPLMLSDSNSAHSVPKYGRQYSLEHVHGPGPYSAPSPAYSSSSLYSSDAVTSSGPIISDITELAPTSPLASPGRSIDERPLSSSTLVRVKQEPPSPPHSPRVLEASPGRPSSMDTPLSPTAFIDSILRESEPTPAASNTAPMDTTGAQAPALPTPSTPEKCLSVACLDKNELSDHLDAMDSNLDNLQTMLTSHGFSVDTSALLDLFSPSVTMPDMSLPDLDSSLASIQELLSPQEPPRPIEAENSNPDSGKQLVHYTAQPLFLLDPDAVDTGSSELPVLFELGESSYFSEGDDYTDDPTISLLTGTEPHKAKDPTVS

[8] = Luminescence Cell-Based Dose Confirmation HTS to Identify Inhibitors of Platelet Dense Granule Release. [Related pubchem assays: 1663 (Primary HTS), 1678 (Summary of Project)]; type: functional
[9] = target: Luciferin 4-monooxygenase (Photinus pyralis, UniProt P08659); test: inhibition of purified Photinus pyralis luciferase – biochemical, luminescence, dose response (AID 1891)
Chain of Luciferin 4-monooxygenase (P08659 whole entry): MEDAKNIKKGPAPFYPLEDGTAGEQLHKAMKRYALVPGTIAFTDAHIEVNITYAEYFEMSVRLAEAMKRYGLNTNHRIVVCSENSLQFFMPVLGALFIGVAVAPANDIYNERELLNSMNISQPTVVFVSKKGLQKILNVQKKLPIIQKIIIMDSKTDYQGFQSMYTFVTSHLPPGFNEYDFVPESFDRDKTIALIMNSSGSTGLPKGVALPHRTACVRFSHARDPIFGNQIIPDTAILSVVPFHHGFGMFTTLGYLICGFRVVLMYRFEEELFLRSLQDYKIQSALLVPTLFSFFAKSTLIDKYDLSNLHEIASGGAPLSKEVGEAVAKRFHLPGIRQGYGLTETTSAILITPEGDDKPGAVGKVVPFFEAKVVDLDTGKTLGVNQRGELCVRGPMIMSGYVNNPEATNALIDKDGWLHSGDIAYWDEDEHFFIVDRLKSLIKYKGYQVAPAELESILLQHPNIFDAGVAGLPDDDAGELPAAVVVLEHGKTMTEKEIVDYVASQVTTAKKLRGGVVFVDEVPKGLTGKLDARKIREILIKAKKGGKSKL

[10] = target: FAD-linked sulfhydryl oxidase ALR (Homo sapiens, UniProt P55789); test: ALR-catalysed DTT oxidation blockers – biochemical, H2O2 detection, luminescence, cherry-pick, dose response (AID 493248)
Chain of FAD-linked sulfhydryl oxidase ALR (P55789 whole entry): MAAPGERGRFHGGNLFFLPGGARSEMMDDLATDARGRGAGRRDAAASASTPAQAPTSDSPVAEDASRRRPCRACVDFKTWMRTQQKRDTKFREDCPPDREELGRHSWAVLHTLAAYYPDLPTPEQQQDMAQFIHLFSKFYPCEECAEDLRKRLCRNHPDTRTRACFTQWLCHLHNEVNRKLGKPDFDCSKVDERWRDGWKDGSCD

[11] = target: T5, Rac GTPase-activating protein 1 (Homo sapiens, UniProt Q9H0H5); test: blockers of MgcRacGAP-driven Rac1 GTP hydrolysis – biochemical, ADP Hunter fluorescence, primary and confirmatory, confirmation (AID 624330); type: functional
T5 sequence (Q9H0H5 whole entry): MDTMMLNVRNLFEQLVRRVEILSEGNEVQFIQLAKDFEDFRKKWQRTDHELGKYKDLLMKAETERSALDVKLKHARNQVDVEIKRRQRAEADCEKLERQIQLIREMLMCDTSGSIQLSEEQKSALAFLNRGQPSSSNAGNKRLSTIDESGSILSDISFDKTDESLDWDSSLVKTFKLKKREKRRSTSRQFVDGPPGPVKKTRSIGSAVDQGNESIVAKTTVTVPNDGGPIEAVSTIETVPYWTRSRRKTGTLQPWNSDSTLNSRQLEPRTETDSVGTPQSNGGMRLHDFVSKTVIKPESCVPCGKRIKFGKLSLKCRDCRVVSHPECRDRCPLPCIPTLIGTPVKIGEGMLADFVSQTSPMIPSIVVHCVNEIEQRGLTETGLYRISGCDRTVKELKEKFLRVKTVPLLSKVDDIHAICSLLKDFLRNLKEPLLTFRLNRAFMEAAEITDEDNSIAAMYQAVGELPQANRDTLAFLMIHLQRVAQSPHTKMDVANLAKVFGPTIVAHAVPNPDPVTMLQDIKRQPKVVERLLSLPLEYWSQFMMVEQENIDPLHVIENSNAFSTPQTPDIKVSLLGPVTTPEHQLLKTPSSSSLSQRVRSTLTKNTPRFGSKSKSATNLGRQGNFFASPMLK

Cytochrome P450 2D6 = Cytochrome P450 2D6 (Homo sapiens, UniProt P10635);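 further: CYP2D6 member of a cytochrome P450 panel assay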
Chain of Cytochrome P450 2D6 (P10635 whole entry): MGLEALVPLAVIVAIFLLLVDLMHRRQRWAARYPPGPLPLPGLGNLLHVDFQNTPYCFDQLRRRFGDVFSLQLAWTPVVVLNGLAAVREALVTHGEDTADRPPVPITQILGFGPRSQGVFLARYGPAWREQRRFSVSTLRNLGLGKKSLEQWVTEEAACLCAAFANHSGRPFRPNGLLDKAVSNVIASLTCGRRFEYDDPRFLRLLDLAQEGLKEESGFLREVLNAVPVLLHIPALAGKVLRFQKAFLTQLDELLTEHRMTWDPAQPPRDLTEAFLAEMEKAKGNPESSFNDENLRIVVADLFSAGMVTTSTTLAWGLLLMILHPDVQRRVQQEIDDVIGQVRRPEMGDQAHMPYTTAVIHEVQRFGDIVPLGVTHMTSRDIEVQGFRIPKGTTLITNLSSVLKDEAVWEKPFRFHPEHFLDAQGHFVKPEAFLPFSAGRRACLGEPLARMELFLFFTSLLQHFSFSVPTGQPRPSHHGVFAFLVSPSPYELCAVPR

[12] = fluconazole-exposed Candida albicans growth modulators – fluorescence, retest, confirmation (AID 2467); type: functional, cell-based
[13] = NIH-3T3 fibroblast cytotoxicity, dose response, cytotoxicity control, cell-based, fluorescence, Alamar Blue, secondary assay (AID 2327); type: functional;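 further: NIH-3T3 mouse fibroblasts cultured with fluconazole at 8 µg/mL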
[14] = NIH3T3 cell viability loss – ATP luminescence, mouse fibroblasts, counter-screen, dose response (AID 2010); type: functional, cell-based;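 further: cells exposed to compound for about 90 hours before reading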
[15] = Trypanosoma cruzi growth suppression in host cells – NIH3T3 host cells, beta-gal luminescence, confirmation (AID 2044); type: functional, cell-based;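 further: intracellular parasites grown in NIH/3T3 mouse fibroblasts as host cells; luminescent beta-galactosidase reporter signal from transgenic T. cruzi replicating inside host cells; inhibitors lower the luminescence signal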

SMILES: O=C(NNc1cc(Cl)cc(Cl)c1)c1cccs1
- IC50 [1]: 16.2 µM (active)

SMILES: CCN1C/C(=C/c2ccc(N3CCOCC3)cc2)C(=O)/C(=C/c2ccc(N3CCOCC3)cc2)C1
- EC50 (BJ [2]): 5.64 µM (active)
- EC50 [3]: 5.96 µM (active)
- EC50 (BJ [4]): 11 µM (inconclusive)
- EC50 (BJ [5]): 7.89 µM (active)

SMILES: COc1cccc(C(=O)O/N=C(\N)c2ccccn2)c1OC
- AC50 (HEK293): 2.67 µM (active)

SMILES: CCCCN(CCCC)C(=O)/C=C/c1cccc([N+](=O)[O-])c1
- IC50 [6]: 19.4 µM (not active)

SMILES: CC(C)c1ccc(NC(=O)NCc2cccnc2)cc1
- IC50 (Protein skinhead-1): > 100 µM (inactive)

SMILES: CCOC(=O)CCCNC(=O)COC(=O)c1cc(Br)c(Br)s1
- IC50 (cells): 13.2 µM (active)

SMILES: Cc1cccc(/C=C/C(=O)c2ccc(N3CCOCC3)cc2)c1
- IC50 [6]: 15.7 µM (not active)

SMILES: CC(C)NC[C@H](O)c1ccc(O)c(O)c1
- IC50 [1]: 4.17e-05 µM (inconclusive)

SMILES: CN(CCC#N)c1ncnc2scc(-c3ccccc3)c12
- IC50 [1]: 12.3 µM (active)

SMILES: CC(C)(C)CC(C)(C)N=C(S)Nc1ccc2nc(-c3ccccn3)c(-c3ccccn3)nc2c1
- IC50 [1]: 26.3 µM (active)

SMILES: COc1ccc(/C=N/Nc2cc(OC)ncn2)cc1
- EC50 [7]: > 260 µM (inactive)
- EC50 [8]: 5.24 µM (active)
- AC50 (HEK293): 11.2 µM (active)
- EC50 [9]: 6.11 µM (active)

SMILES: CC(C)C[C@H](NC(=O)c1[nH]cnc1C(=O)NCc1ccccc1)C(=O)OC(C)(C)C
- IC50 [6]: 10.8 µM (not active)

SMILES: Cc1cc(NC(=O)CSc2nc(-c3ccco3)cc(C(F)(F)F)n2)n(-c2ccccc2)n1
- EC50 (BJ [2]): > 75 µM (not active)
- EC50 [3]: 14.9 µM (active)
- EC50 (BJ [4]): 64.5 µM (inconclusive)
- EC50 (BJ [5]): 17.6 µM (inconclusive)

SMILES: Cc1cc2cc(CN(Cc3ccco3)S(=O)(=O)c3c(C)ccc4nsnc34)c(O)nc2cc1C
- AC50 (HEK293): 0.968 µM (active)

SMILES: C/C(CC(=O)Nc1ccc(N(C)C)cc1)=N\NC(=O)c1ccc([N+](=O)[O-])cc1
- AC50 [10]: 5.09 µM (active)
- IC50 [11]: 62.3 µM (active)

SMILES: CCCNC(=O)c1c(CSc2ccccc2)noc1C(=O)NCc1ccccc1
- IC50 [6]: 3.24 µM (not active)

SMILES: CC(C)Cn1c(N)c(C(=O)COC(=O)c2cccc(Cl)c2)c(=O)n(C)c1=O
- IC50 [6]: 6.14 µM (active)

SMILES: C=CCNc1nc(-c2ccc(Cl)cc2)cs1
- IC50 (Protein skinhead-1): > 100 µM (inactive)
- AC50 (Cytochrome P450 2D6): 25.1 µM (inconclusive)

SMILES: CCC(NC(=O)CCc1nnc(-c2cc(C)on2)o1)C12CC3CC(CC(C3)C1)C2 (stereo unspecified)
- IC50 [1]: 14.5 µM (active)

SMILES: Cc1cc(NC(=S)N(Cc2cccc(Br)c2)CC2CCC(C(=O)O)CC2)ccc1Cl (stereo unspecified)
- IC50 [6]: 11.3 µM (not active)

SMILES: CCCCn1c(S)nnc1-c1csc2c1CCC(C)C2 (stereo unspecified)
- IC50 [6]: 18.2 µM (not active)

SMILES: CCN1CCn2c3c(c4cc(Cl)ccc42)CCCC31 (stereo unspecified)
- IC50 [1]: 3.31 µM (active)

SMILES: O=C(Nc1ccccc1)OCCCc1ccccc1 [3-PHENYLPROPYL PHENYLCARBAMATE]
- IC50 (Protein skinhead-1): 68.6 µM (inactive)

SMILES: CCOc1ccc(OCC(=O)Nc2ccc(OC)cc2)cc1
- IC50 (cells): 26.4 µM (active)

SMILES: Cc1cccc(Cn2c(Sc3nc(C)cs3)nc3c2c(=O)[nH]c(=O)n3C)c1
- IC50 (Protein skinhead-1): > 100 µM (inactive)

SMILES: O=C(O/N=C1\CCS(=O)(=O)c2sccc21)c1ccc(F)cc1
- IC50 [6]: < 0.4 µM (not active)

SMILES: CCN1CCn2c3c(c4cccc(C)c42)CCCC31 (stereo unspecified)
- IC50 [1]: 14.5 µM (active)

SMILES: COC(=O)C1=C(C)N=C(C)/C(=C(/O)OC)C1c1ccc(OC(=O)c2ccco2)cc1 (stereo unspecified)
- IC50 (Protein skinhead-1): > 100 µM (inactive)

SMILES: O=C1C2CCCN2c2ccc(S(=O)(=O)N3CCOCC3)cc2N1Cc1ccccc1F (stereo unspecified)
- AC50 (HEK293): > 350 µM (inactive)

SMILES: C=CC[C@@H]1C=C(C)C[C@H](C)C[C@H](OC)[C@H]2O[C@@](O)(C(=O)C(=O)N3CCCC[C@H]3C(=O)O[C@H](/C(C)=C/[C@@H]3CC[C@@H](O)[C@H](OC)C3)[C@H](C)[C@@H](O)CC1=O)[C@H](C)C[C@@H]2OC
- EC50 [12]: 0.035 µM (active)
- EC50 [13]: > 160 µM (inactive)

SMILES: COc1ccc(-[n+]2c(-c3ccc(Br)cc3)cn3c2SC(C)C3)cc1 (stereo unspecified)
- EC50 [12]: 2.96 µM (active)
- EC50 [14]: > 30 µM (not active)
- EC50 [15]: 0.684 µM (active)
- EC50 [13]: > 160 µM (inactive)
